Experimental data: ChEMBL document CHEMBL1148352, “1,2,4-triazolo[4,3-a]quinoxalin-1-one moiety as an attractive scaffold to develop new potent and selective human A3 adenosine receptor antagonists: synthesis, pharmacological, and ligand-receptor modeling studies” (J Med Chem, 2004)

Experiments:
[1] = biological target: T1, Adenosine receptor A3 (Homo sapiens, UniProt P0DMS8); test: biochemical
T1 sequence (P0DMS8 whole entry): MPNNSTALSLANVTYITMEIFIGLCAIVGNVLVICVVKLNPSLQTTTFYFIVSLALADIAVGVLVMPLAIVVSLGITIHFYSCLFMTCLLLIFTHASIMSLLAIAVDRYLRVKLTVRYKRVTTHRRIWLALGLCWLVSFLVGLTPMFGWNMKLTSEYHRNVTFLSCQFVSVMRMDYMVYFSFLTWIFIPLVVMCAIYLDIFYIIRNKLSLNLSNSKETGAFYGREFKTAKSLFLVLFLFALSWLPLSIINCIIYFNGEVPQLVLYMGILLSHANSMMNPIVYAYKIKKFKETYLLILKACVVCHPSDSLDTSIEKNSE
Description: Binding affinity against human adenosine A3 receptor expressed in CHO cells by [125I]AB-MECA displacement.

[2] = biological target: T2, Adenosine receptor A1 (Homo sapiens) (UniProt P30542); test: Percent inhibition against human adenosine A1 receptor expressed in CHO cells using [3H]CHA at 10 uM; format: cell-based
T2 sequence (whole entry): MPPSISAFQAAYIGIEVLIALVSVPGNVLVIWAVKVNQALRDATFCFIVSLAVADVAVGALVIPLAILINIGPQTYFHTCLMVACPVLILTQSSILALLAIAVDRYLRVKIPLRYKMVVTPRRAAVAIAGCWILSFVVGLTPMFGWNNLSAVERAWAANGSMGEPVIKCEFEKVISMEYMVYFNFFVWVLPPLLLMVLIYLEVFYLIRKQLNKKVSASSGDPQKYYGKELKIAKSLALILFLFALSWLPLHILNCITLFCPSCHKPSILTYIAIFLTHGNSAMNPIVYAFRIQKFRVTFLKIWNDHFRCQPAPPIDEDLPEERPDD

[3] = tested on: Adenosine receptor A2a (Bos taurus); test: Inhibition of [3H]-CGS- 21680 binding to adenosine A2a receptor of bovine striatal membranes
[4] = biological target: T3, Adenosine receptor A1 (Bos taurus) (UniProt P28190); test: Inhibition of [3H]CHA binding to adenosine A1 receptor of bovine brain membranes; format: cell membranes
T3 sequence (whole entry): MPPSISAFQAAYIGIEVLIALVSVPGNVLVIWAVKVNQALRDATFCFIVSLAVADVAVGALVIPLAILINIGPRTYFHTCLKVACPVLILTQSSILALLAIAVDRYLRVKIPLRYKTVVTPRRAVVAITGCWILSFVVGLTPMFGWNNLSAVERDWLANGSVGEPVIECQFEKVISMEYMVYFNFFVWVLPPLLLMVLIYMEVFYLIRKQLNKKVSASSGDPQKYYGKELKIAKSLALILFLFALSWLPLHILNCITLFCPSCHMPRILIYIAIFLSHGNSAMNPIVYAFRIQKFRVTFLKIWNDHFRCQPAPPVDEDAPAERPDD

[5] = biological target: T4, Adenosine receptor A1 (Homo sapiens, UniProt P30542); test: biochemical
T4 sequence (P30542 whole entry): T2 sequence (whole entry)
Description: Binding affinity against human adenosine A1 receptor expressed in CHO cells using [3H]CHA

[6] = biological target: Adenosine receptor A2a (Bos taurus)
[7] = biological target: T5, Adenosine receptor A1 (Bos taurus, UniProt P28190)
T5 sequence (P28190 whole entry): T3 sequence (whole entry)
Description: Binding affinity against adenosine A1 receptor in bovine brain membranes by [3H]CHA displacement.

[8] = biological target: T6, Adenosine receptor A3 (Homo sapiens) (UniProt P0DMS8); test: Percent inhibition against human adenosine A3 receptor expressed in CHO cells using [125I]AB-MECA at 1 uM; format: cell-based
T6 sequence (whole entry): T1 sequence (P0DMS8 whole entry)

[9] = biological target: Adenosine receptors; A1 & A3 (Homo sapiens) (UniProt P30542+P0DMS8); test: Selectivity as ratio of affinity against human adenosine A3 and A1 receptors; format: protein assay
[10] = biological target: Adenosine receptors; A2a & A3 (Homo sapiens) (UniProt P0DMS8+P29274); test: Selectivity as ratio of affinity against human adenosine A3 and A2A receptors; format: protein assay
[11] = biological target: T1, Adenosine receptor A3; test: Effective concentration for inhibition of NECA-stimulated [35S]GTP-gamma-S, binding at human adenosine A3 receptor expressed in CHO cells; format: functional, cell-based

Adenosine receptors; A2a & A3 (Homo sapiens), sequence (P29274 whole entry, looked up, one chain of several): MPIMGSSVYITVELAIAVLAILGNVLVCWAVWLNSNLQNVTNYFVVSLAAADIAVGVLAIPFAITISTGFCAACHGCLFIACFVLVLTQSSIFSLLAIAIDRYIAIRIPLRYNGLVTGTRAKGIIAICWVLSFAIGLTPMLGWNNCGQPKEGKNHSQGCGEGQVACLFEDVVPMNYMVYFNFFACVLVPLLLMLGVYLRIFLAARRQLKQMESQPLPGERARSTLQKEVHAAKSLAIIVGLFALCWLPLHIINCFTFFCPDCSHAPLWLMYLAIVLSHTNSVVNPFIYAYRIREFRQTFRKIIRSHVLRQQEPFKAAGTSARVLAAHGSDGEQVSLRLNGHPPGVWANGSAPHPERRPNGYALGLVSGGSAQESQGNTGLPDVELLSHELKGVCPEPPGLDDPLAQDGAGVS

Row | SMILES | Ki [1] [nM] | I [3] [%] | I [4] [%] | Ki [7] [nM] | further results
1 | COc1ccc(-n2nc3c(N)nc4c([N+](=O)[O-])cccc4n3c2=O)cc1 | 47 | 16.5 | 19 | – | I [2]: 45%
2 | COc1ccc(-n2nc3c(N)nc4ccccc4n3c2=O)cc1 | – | – | – | – | Ki [5]: 69 nM
3 | CCOc1ccc(-n2nc3c(N)nc4ccccc4n3c2=O)cc1 | 203 | – | – | 537 | Ki [6]: 13000 nM
4 | Nc1nc2ccccc2n2c(=O)n(-c3ccc(O)cc3)nc12 | 73.2 | – | – | 116 | Ki [6]: 80 nM
5 | O=c1[nH]c2c([N+](=O)[O-])cccc2n2c(=O)n(-c3ccc(O)cc3)nc12 | – | 4 | 38 | – | I [8]: 21%
6 | Nc1ccc(-n2nc3c(N)nc4ccccc4n3c2=O)cc1 | 335 | – | – | 48 | Ki [6]: 3.6 nM
7 | Nc1ccc(-n2nc3c(=O)[nH]c4ccccc4n3c2=O)cc1 | 3600 | – | – | – | –
8 | COc1ccc(-n2nc3c(=O)[nH]c4c(N)cccc4n3c2=O)cc1 | 83 | 23 | 16 | – | –
9 | Nc1nc2c([N+](=O)[O-])cccc2n2c(=O)n(-c3ccc(O)cc3)nc12 | – | – | – | 446 | Ki [6]: 1600 nM; I [8]: 45%
10 | Nc1cccc2c1[nH]c(=O)c1nn(-c3ccc(O)cc3)c(=O)n12 | – | 36 | – | 996 | I [8]: 39%
11 | COc1ccc(-n2nc3c(=O)[nH]c4ccccc4n3c2=O)cc1 | – | – | – | – | I [2]: 42%
12 | Nc1nc2c([N+](=O)[O-])cccc2n2c(=O)n(-c3ccc([N+](=O)[O-])cc3)nc12 | – | 2.7 | – | 155 | I [8]: 30%
13 | Nc1nc2c([N+](=O)[O-])cccc2n2c(=O)n(-c3ccccc3)nc12 | 4.75 | – | – | 82 | Ki [5]: 870 nM
14 | Nc1nc2ccccc2n2c(=O)n(-c3ccc([N+](=O)[O-])cc3)nc12 | – | 31 | 11.9 | – | I [8]: 28%
15 | CN(C)c1ccc(-n2nc3c(=O)[nH]c4ccccc4n3c2=O)cc1 | 429 | 0 | – | 578 | –
16 | O=c1[nH]c2c([N+](=O)[O-])cccc2n2c(=O)n(-c3ccc([N+](=O)[O-])cc3)nc12 | – | 0 | – | 91 | I [8]: 24%
17 | O=c1[nH]c2ccccc2n2c(=O)n(-c3ccc([N+](=O)[O-])cc3)nc12 | 0.6 | 21 | 19 | – | I [2]: 32%; Selectivity ratio [9]: > 16600; Selectivity ratio [10]: > 16600; EC50 [11]: 5.4 nM
18 | O=c1[nH]c2ccccc2n2c(=O)n(-c3ccc(O)cc3)nc12 | 47 | – | – | 30.6 | Ki [5]: 168 nM
19 | COc1ccc(-n2nc3c(=O)[nH]c4c([N+](=O)[O-])cccc4n3c2=O)cc1 | – | 14 | 25 | – | I [2]: 0%
20 | CCOc1ccc(-n2nc3c(=O)[nH]c4ccccc4n3c2=O)cc1 | 175 | – | – | – | –
21 | CC(=O)Oc1ccc(-n2nc3c(=O)[nH]c4ccccc4n3c2=O)cc1 | 11.2 | – | – | 26 | Ki [6]: 9700 nM; Ki [5]: 320 nM
22 | CC(=O)Oc1ccc(-n2nc3c(=O)[nH]c4c([N+](=O)[O-])cccc4n3c2=O)cc1 | – | 0 | 21.3 | – | I [8]: 20%
23 | COc1ccc(-n2nc3c(N)nc4c(N)cccc4n3c2=O)cc1 | 22 | – | 38 | – | Ki [6]: 1050 nM; Ki [5]: 186 nM
24 | Nc1cccc2c1nc(N)c1nn(-c3ccc(O)cc3)c(=O)n12 | 176 | – | – | 61 | Ki [6]: 181 nM
